According to patent US6630157B1, “Therapeutic and dietary compositions containing essential fatty acids and bioactive disulphides” (Viatris GmbH & Co. KG., priority 1997, dated 2003):
Entries after “also recorded” stand apart in the source; their conditions may differ.

Legend:
[1] = tested on: sciatic nerve of rats made diabetic by streptozotocin; test: sciatic nerve blood flow by microelectrode polarography hydrogen clearance in streptozotocin diabetic rats; assay type: in vivo, rat; details: STZ diabetic Sprague Dawley rats; GLA approx. 20 mg/kg/daily in food, TA 20 mg/kg/day intraperitoneal; 2 weeks treatment starting 6 weeks after STZ
Text: (§1) Initial experimental evidence was obtained by studying rats made diabetic by the administration of streptozotocin. In such animal, complications resembling human complications of diabetes develop, and are characterised by reduction in conduction velocity to of impulses along the sciatic nerve and reduction in blood flow to the sciatic nerve. The reduction in blood flow is particularly important and is likely to be relevant to many complications of diabetes including retinopathy, nephropathy macrovascular arterial disease of the heart and peripheral arteries, impotence and leg ulceration. It may also be relevant to many of the other conditions in which essential fatty acids are useful treatments, including the inflammatory disorders. Five groups of animals given streptozotocin (STZ) were tested. They were accepted into the study only if they developed unequivocal elevation of blood glucose after the STZ. Ten animals acted as normal controls. […] The animals were left for 6 weeks after the STZ to allow the nerve damage to develop and were then given treatment with nothing or with GLA or TA or both together for 2 weeks At the end of the two weeks, the animals were anaesthetised and the motor nerve conduction velocity measured in the perineal branch of the sciatic nerve. Sciatic nerve blood flow was also measured by microelectrode polarography hydrogen clearance

[2] = tested on: perineal branch of the sciatic nerve of rats made diabetic by streptozotocin; test: motor nerve conduction velocity in streptozotocin diabetic rats; assay type: in vivo, rat; details: STZ diabetic Sprague Dawley rats; GLA approx. 20 mg/kg/daily in food, TA 20 mg/kg/day intraperitoneal; 2 weeks treatment starting 6 weeks after STZ
Text: as §1

[3] = tested on: red cell membrane phospholipids; test: fatty acid levels in red cell membrane phospholipids of rats fed GLA, EPA or DHA with or without anti-oxidant; assay type: in vivo, rat; details: two weeks; for effect on levels of the fatty acids or their immediate metabolites in red cell membrane phospholipids: fatty acid (GLA, EPA or DHA) 0.1% by weight in food plus 0.1% by weight anti-oxidant, preliminary experiments
Experimental: (§2) In an effort to explore the effect further, we have performed preliminary experiments on rats on the effects of the administration of either GLA, EPA or DHA with or without the so anti-oxidants vitamin E, vitamin C or TA. Each fatty acid was added to the food at 0.1% by weight for a period of two weeks. The diet also contained either no other added material (control) or 0.1% by weight of vitamin E, vitamin C or TA. After two weeks the animals were killed and the levels of the fatty acids or their immediate metabolites determined in plasma phospholipids and in red cell membrane phospholipids. […] We can therefore conclude that there is no effect of anti-oxidants per se on the metabolism of the GLA, EPA or DHA in this situation. Equally, there were no effects of TA on the plasma phospholipid fatty acid composition. In contrast, in each of the groups the concentrations of the relevant fatty acids in red cell phospholipids were increased by 10-20%.

[4] = tested on: plasma phospholipids; test: fatty acid levels in plasma phospholipids of rats fed GLA, EPA or DHA with or without anti-oxidant; assay type: in vivo, rat; details: fatty acid (GLA, EPA or DHA) 0.1% by weight in food plus 0.1% by weight anti-oxidant, two weeks, preliminary experiments
Experimental: as §2

[5] = tested on: nerve conduction; details: TA alone; Packer et al, pages 570-572; cited from earlier work
[6] = tested on: atopic eczema, breast pain, rheumatoid arthritis and cardiovascular disease; test: clinical studies of GLA with co-administration of vitamin E; assay type: in vivo, human
Text: (§3) The results with EFA's and their synergistic effects with TA were completely unexpected and we decided to investigate them further. Vitamin E, like TA, is a lipophilic antioxidant and is one which is generally regarded as being physiologically more important than TA.

[7] = tested on: animals with diabetes; test: vitamin E administered together with GLA in animals with diabetes; assay type: in vivo
Text: as §3

## CCCCC/C=C\C/C=C\C/C=C\CCCCC(=O)O [GLA, Gamma-linolenic acid]
[1]
  total nerve blood flow: little effect alone; also recorded: small improvements
[2]
  motor nerve conduction velocity: little effect alone; also recorded: small improvements

## O=C(O)CCCCC1CCSS1 (stereo not drawn) [TA, α-lipoic acid]
[3]; GLA, EPA or DHA 0.1% by weight in food plus 0.1% by weight TA, versus control without TA
  increase of concentrations of the relevant fatty acids in red cell phospholipids: 10-20%
[4]
  effect on levels of the fatty acids or their immediate metabolites in plasma phospholipids: no effects
[1]
  total nerve blood flow: little effect alone; also recorded: small improvements
[5]
  effect on nerve conduction: absence of effect
[2]
  motor nerve conduction velocity: little effect alone; also recorded: small improvements

## O=C1O[C@H]([C@@H](O)CO)C(O)=C1O [vitamin C]
[3]
  effect on levels of the fatty acids or their immediate metabolites in red cell membrane phospholipids: Neither vitamin E nor vitamin C had any effects
[4]
  effect on levels of the fatty acids or their immediate metabolites in plasma phospholipids: Neither vitamin E nor vitamin C had any effects

## vitamin E
[3]
  effect on levels of the fatty acids or their immediate metabolites in red cell membrane phospholipids: Neither vitamin E nor vitamin C had any effects
[6]
  enhancement of the effects of GLA in clinical studies: not enhanced
[4]
  effect on levels of the fatty acids or their immediate metabolites in plasma phospholipids: Neither vitamin E nor vitamin C had any effects
[7]
  enhancement of the effect of GLA: no enhancement at all
